Ki data for 3 compounds are collected here from publication PMC5414049 (Science (New York, N.Y.), 2016).

Holding throughout (format): biochemical
The target in experiment [1] is ornithine transcarbamylase (Arg3) (Saccharomyces cerevisiae, UniProt P05150).
A further experiment concerns the target T1, pyruvate kinase (Cdc19) (Saccharomyces cerevisiae, UniProt P00549).
T1 sequence (P00549 2-500): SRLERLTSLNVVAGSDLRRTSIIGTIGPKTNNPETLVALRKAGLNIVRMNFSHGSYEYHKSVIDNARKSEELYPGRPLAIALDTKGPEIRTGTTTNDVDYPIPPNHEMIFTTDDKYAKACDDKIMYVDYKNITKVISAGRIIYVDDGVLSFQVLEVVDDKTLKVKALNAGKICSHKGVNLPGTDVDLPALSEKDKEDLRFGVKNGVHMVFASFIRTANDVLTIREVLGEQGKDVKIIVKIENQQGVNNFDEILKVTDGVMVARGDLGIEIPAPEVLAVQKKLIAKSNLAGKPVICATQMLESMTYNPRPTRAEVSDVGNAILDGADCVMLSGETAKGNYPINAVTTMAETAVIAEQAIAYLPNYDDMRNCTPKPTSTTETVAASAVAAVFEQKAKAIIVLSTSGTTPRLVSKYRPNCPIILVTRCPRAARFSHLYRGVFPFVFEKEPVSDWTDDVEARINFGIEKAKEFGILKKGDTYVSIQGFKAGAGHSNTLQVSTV

Experiment [2] addresses T2, pyruvate decarboxylase (Pdc1) (Saccharomyces cerevisiae, UniProt P06169).
T2 sequence (P06169 2-563): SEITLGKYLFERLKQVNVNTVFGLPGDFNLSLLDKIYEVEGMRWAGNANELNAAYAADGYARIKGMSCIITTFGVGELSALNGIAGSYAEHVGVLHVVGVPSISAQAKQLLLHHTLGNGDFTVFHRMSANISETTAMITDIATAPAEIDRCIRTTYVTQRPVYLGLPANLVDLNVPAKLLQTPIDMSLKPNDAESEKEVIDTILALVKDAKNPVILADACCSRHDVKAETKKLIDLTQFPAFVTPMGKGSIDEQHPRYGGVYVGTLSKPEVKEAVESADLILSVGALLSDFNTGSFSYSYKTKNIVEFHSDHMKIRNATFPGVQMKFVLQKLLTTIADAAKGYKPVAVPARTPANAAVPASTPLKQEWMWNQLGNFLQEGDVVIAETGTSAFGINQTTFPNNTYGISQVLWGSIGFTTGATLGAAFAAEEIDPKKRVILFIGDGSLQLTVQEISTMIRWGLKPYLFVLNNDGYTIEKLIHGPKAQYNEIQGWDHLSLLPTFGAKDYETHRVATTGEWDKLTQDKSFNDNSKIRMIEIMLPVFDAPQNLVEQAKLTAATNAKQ
The experiment in a line: ADH/NADH-coupled spectrophotometric assay, 1H-NMR confirmation.

Chain of ornithine transcarbamylase (Arg3) (P05150 2-338): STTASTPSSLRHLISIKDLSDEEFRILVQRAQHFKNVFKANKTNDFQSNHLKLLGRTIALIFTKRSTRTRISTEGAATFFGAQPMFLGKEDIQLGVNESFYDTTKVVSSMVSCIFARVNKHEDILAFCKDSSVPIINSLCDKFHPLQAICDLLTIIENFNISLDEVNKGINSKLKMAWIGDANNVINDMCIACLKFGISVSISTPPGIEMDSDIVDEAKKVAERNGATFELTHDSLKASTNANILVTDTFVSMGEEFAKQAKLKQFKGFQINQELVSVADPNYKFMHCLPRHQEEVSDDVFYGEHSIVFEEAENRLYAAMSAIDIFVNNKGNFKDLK

A word on the Ki: it is a measure of affinity in units of concentration, obtained from inhibition or displacement. A lower Ki goes with higher affinity. Regarding `C[C@H](N)C(=O)O` [alanine], the Ki in experiment [1] turned out to be 15 mM.

For the compound `O=C(O)CC(O)(CC(=O)O)C(=O)O` [citrate], the inhibition constant (Ki) at pyruvate kinase (Cdc19) is roughly 5 mM.

`O=C(O)C(=O)Cc1ccccc1` [phenylpyruvate] displayed a Ki in experiment [2] of 1 to 4 mM.
